According to patent EP0768085A1, “ANTIBACTERIAL AGENT” (DAIICHI PHARMACEUTICAL CO., LTD., priority 1994, dated 1996):
In brackets after ≈: the same amount, converted by molar mass.

Legend:
Format in all cases: cell-based
[1] = tested on: Staphylococcus aureus TI-1; assay: Antibacterial activity (IC), broth microplate as in Example 4 (Example 5, Table 40); details: TI1, 18 h
Experimental: (§1) A suitable amount of a sample was dissolved in dimethylsulfoxide (DMSO), and the resultant solution was diluted with the same amount of sterilized distilled water to prepare a bulk sample of 1,000 µg/ml. Mueller-Hinton broth (product of DIFCO) was dispensed into each well of 96-well microplate. Thereafter, the bulk specimen was added to the first well of a row, and successively diluted (10-fold each time) with sterilized distilled water. Separately, a bacterial cell suspension for the test (Staphylococcus aureus 209-P) which had been cultured in the above-mentioned broth overnight at 37°C was inoculated to each well so that the final inoculation amount of 10^6 CFU/ml was attained. The final concentrations of the samples were 100, 10, and 1 µg/ml.
(§2) The antibacterial action was evaluated by the inhibitory concentration (hereinafter abbreviated as IC) at which propagation of the bacteria cultured at 37°C for 18 hours was inhibited. Inhibition was determined by the turbidity of the medium. The expressions "IC≤100", "≤10", and "≤1" indicate that MIC-equivalent values obtained at the succesive […] dilution of the sample are 100-10 µg/ml, 10-1 µg/ml, and not more than 1 µg/ml, respectively. […] (In the subsequent Examples, the same rule applies correspondingly.) Table 39
In a manner similar to that described in Example 4, antibacterial activity of the invention compound was determined. The bacterium used for the test was Staphylococcus aureus TI-1.

[2] = tested on: Staphylococcus aureus 209-P; assay: Antibacterial activity (IC), Mueller-Hinton broth, 96-well microplate (Example 4, Table 39); details: 37°C, 18 hours
Experimental: as §1, §2

[3] = tested on: Streptococcus aureus (TI-1); assay: Antibacterial activity (IC), agar as in Example 8 (Example 16, Table 49); details: 18 h
Experimental: as §2
(§3) A suitable amount of a sample was dissolved in dimethylsulfoxide (DMSO), after which the resulting solution was diluted with the same amount of sterilized distilled water to prepare a bulk sample of 1,000 µg/ml. Separately, a bacterial liquid for the test (methicillin-resistant Staphylococcus aureus (MRSA) isolated from humans) which had been cultured in Mueller-Hinton broth (product of DIFCO) was prepared and inoculated to a Mueller-Hinton agar (product of DIFCO) containing the sample so that the final inoculation amount of 10^6 CFU/ml was achieved. The final concentrations of the samples were 100, 10, and 1 µg/ml.
(§4) After culturing at 37°C for 18 hours, the antibacterial activity was evaluated in terms of IC in a manner similar to that described in Example 4.
In a manner similar to that described in Example 8, antibacterial activity of the invention compound was determined. The bacterium used for the test was […] aureus (TI-1).

[4] = tested on: Staphylococcus aureus (209-P); assay: Antibacterial activity (IC), agar as in Example 8 (Example 15, Table 48); details: 18 h
Experimental: as §2, §3, §4
The bacterium used for the test was Staphylococcus aureus (209-P).

[5] = tested on: Pasteurella multocida (Kobe-6); assay: Antibacterial activity (IC), agar as in Example 8 (Example 17, Table 50); details: 18 h, origin pig
Experimental: as §2, §3, §4
In a manner similar to that described in Example 8, antibacterial activity of the invention compound was determined. The bacterium used for the test was Pasteurella Kobe-6 (origin: pig, Pasteurella multocida).

Enterococcus from fish = assay: Antibacterial activity (IC), agar as in Example 8, media with 1.5% NaCl, 25°C (Example 20, Tables 53-55)
Experimental: as §2, §3, §4
(§5) In a manner similar to that described in Example 8, antibacterial activity of a variety of ketonitrile derivatives shown in Tables 53-55 was measured. The bacteria used for the test were Enterococcus and Pasteurella from fish. The culture conditions were such that the media contained 1.5% NaCl, and the culture temperature was 25°C.

Pasteurella from fish = assay: as above; details: Pasteurella piscicida KP94-02
Experimental: as §2, §3, §4, §5

SMILES	MIC [1]	MIC [2]	MIC [4]	further results
CC(Oc1ccc(Oc2nc3ccccc3s2)cc1)C(=O)C(C#N)c1ccc(Cl)cc1Cl (stereo not shown) [Compound No. 11]	10 to 100 µg/mL (≈ 20.7 to 207 µM)	10 to 100 µg/mL (≈ 20.7 to 207 µM)	–	–
N#CC(C(=O)COc1ccc(Oc2ccc(C(F)(F)F)cn2)cc1)c1cccc(Cl)c1 (stereo not shown) [Compound No. 13]	10 to 100 µg/mL (≈ 22.4 to 224 µM)	10 to 100 µg/mL (≈ 22.4 to 224 µM)	–	–
CC(Oc1ccc(Oc2ccc(C#N)cc2F)cc1)C(=O)C(C#N)c1ccccc1 (stereo not shown) [Compound No. 30]	10 to 100 µg/mL (≈ 25 to 250 µM)	10 to 100 µg/mL (≈ 25 to 250 µM)	–	–
CC(Oc1ccc(Oc2ccc(C#N)cc2F)cc1)C(=O)C(C#N)c1ccc(Cl)cc1Cl (stereo not shown) [Compound No. 31]	10 to 100 µg/mL (≈ 21.3 to 213 µM)	10 to 100 µg/mL (≈ 21.3 to 213 µM)	–	–
CC(Oc1ccc(Oc2ccc(C(F)(F)F)cc2Cl)cc1)C(=O)C(C#N)C(=O)N(C)c1ccccc1 (stereo not shown) [Compound No. 36, 4-[4-(2-chloro-4-trifluoromethylphenoxy)phenoxy]-2-methylphenylamidecarbonile-3-oxopentanitrile]	1 to 10 µg/mL (≈ 1.93 to 19.3 µM)	–	–	–
CC(Oc1ccc(Oc2ncc(C(F)(F)F)cc2Cl)cc1)C(=O)C(C#N)C(=O)N(Cc1ccccc1)Cc1ccccc1 (stereo not shown) [Compound No. 38, 4-[4-(3-chloro-5-trifluoromethylpyridyloxy)phenoxy]-2-dibenzylamidecarbonile-3-oxopentanitrile]	–	1 to 10 µg/mL (≈ 1.64 to 16.4 µM)	–	–
CC(Oc1cccc(Oc2ccc(C(F)(F)F)cn2)c1)C(=O)C(C#N)c1ccc(Cl)c(Cl)c1 (stereo not shown) [Compound No. 102, 2-(3,4-dichlorophenyl)-3-oxo-4-[3-(5-trifluoromethyl-2-pyridyloxy)phenoxy]pentanonitrile]	–	–	1 to 10 µg/mL (≈ 2.02 to 20.2 µM)	MIC [3]: ≤ 1 µg/mL
COc1ccc(C(C#N)C(=O)C(C)Oc2cccc(Oc3ccc(C(F)(F)F)cc3Cl)c2)cc1 (stereo not shown) [Compound No. 107, 4-[3-(2-chloro-4-trifluoromethylphenoxy)-phenoxy]-2-(4-methoxyphenyl)-3-oxopentanonitrile]	–	–	10 to 100 µg/mL (≈ 20.4 to 204 µM)	MIC [3]: 10 to 100 µg/mL (≈ 20.4 to 204 µM)
CC(Oc1ccc(Oc2nc(Cl)c(Cl)cc2Cl)cc1)C(=O)C(C#N)c1ccc(Cl)cc1Cl (stereo not shown) [compound 7]	1 to 10 µg/mL (≈ 1.88 to 18.8 µM)	10 to 100 µg/mL (≈ 18.8 to 188 µM)	–	–
CC(Oc1ccc(Oc2ccc(C(F)(F)F)cn2)cc1)C(=O)C(C#N)c1cccc(C(F)(F)F)c1 (stereo not shown) [compound 8]	1 to 10 µg/mL (≈ 2.02 to 20.2 µM)	10 to 100 µg/mL (≈ 20.2 to 202 µM)	–	–
N#CC(C(=O)COc1ccc(Oc2ncc(C(F)(F)F)cc2Cl)cc1)c1cccc(Cl)c1 (stereo not shown) [compound 12]	1 to 10 µg/mL (≈ 2.08 to 20.8 µM)	10 to 100 µg/mL (≈ 20.8 to 208 µM)	–	–
CC(Oc1ccc(Oc2ncc(C(F)(F)F)cc2Cl)cc1)C(=O)C(C#N)c1ccccc1 (stereo not shown) [compound 18]	1 to 10 µg/mL (≈ 2.17 to 21.7 µM)	10 to 100 µg/mL (≈ 21.7 to 217 µM)	–	–
CC(Oc1ccc(Oc2ncc(C(F)(F)F)cc2Cl)cc1)C(=O)C(C#N)c1cccs1 (stereo not shown) [compound 19]	10 to 100 µg/mL (≈ 21.4 to 214 µM)	10 to 100 µg/mL (≈ 21.4 to 214 µM)	–	–
CC(Oc1ccc(Oc2ncc(C(F)(F)F)cc2Cl)cc1)C(=O)C(C#N)c1nc(Cl)cc(Cl)n1 (stereo not shown) [compound 21]	1 to 10 µg/mL (≈ 1.88 to 18.8 µM)	10 to 100 µg/mL (≈ 18.8 to 188 µM)	–	–
CC(Oc1ccc(Oc2ncc(C(F)(F)F)cc2Cl)cc1)C(=O)C(C#N)c1c(Cl)cccc1Cl (stereo not shown) [compound 23]	–	10 to 100 µg/mL (≈ 18.9 to 189 µM)	–	–
CC(Oc1ccc(Oc2ncc(C(F)(F)F)cc2Cl)cc1)C(=O)C(C#N)c1c(F)cccc1Cl (stereo not shown) [compound 24]	10 to 100 µg/mL (≈ 19.5 to 195 µM)	10 to 100 µg/mL (≈ 19.5 to 195 µM)	–	–

SMILES	MIC [1]	MIC [2]	MIC [4]	further results
CC(Oc1ccc(Oc2ncc(C(F)(F)F)cc2Cl)cc1)C(=O)C(C#N)c1ccc(F)cc1F (stereo not shown) [compound 25]	10 to 100 µg/mL (≈ 20.1 to 201 µM)	10 to 100 µg/mL (≈ 20.1 to 201 µM)	–	–
CC(Oc1ccc(Oc2ncc(C(F)(F)F)cc2Cl)cc1)C(=O)C(C#N)c1cc(F)ccc1F (stereo not shown) [compound 26]	10 to 100 µg/mL (≈ 20.1 to 201 µM)	10 to 100 µg/mL (≈ 20.1 to 201 µM)	–	–
CC(Oc1ccc(Oc2ncc(C(F)(F)F)cc2Cl)cc1)C(=O)C(C#N)c1c(F)cccc1F (stereo not shown) [compound 28]	10 to 100 µg/mL (≈ 20.1 to 201 µM)	–	–	–
CC(Oc1ccc(Oc2ccc([N+](=O)[O-])cc2F)cc1)C(=O)C(C#N)c1ccc(Cl)cc1Cl (stereo not shown) [compound 29]	10 to 100 µg/mL (≈ 20.4 to 204 µM)	10 to 100 µg/mL (≈ 20.4 to 204 µM)	–	–
CCN(Cc1ccccc1)C(=O)C(C#N)C(=O)C(C)Oc1ccc(Oc2ncc(C(F)(F)F)cc2Cl)cc1 (stereo not shown) [compound 39]	–	10 to 100 µg/mL (≈ 18.3 to 183 µM)	–	–
CC(Oc1ccc(Oc2ncc(C(F)(F)F)cc2Cl)cc1)C(=O)C(C#N)C(=O)N1CCCc2ccccc21 (stereo not shown) [compound 40]	–	10 to 100 µg/mL (≈ 18.4 to 184 µM)	–	–
CC(Oc1cc(Oc2ccc(C(F)(F)F)cc2Cl)ccc1[N+](=O)[O-])C(=O)C(C#N)C(=O)N1CCCCC1 (stereo not shown) [compound 135]	–	–	–	MIC [5]: 10 to 100 µg/mL (≈ 18.5 to 185 µM); IC (Enterococcus from fish; Enterococcus Seriolicida HI): ≤100 (MIC-equivalent values obtained at the succesive 2-fold dilution of the sample are 100-10 µg/ml); IC (Enterococcus from fish; Enterococcus Seriolicida KG86050): ≤100 (MIC-equivalent values obtained at the succesive 2-fold dilution of the sample are 100-10 µg/ml); IC (Enterococcus from fish; Enterococcus Seriolicida MS89060): ≤100 (MIC-equivalent values obtained at the succesive 2-fold dilution of the sample are 100-10 µg/ml); IC (Enterococcus from fish; Enterococcus Seriolicida MS89064): ≤100 (MIC-equivalent values obtained at the succesive 2-fold dilution of the sample are 100-10 µg/ml); IC (Enterococcus from fish; Enterococcus Seriolicida MS89066): ≤100 (MIC-equivalent values obtained at the succesive 2-fold dilution of the sample are 100-10 µg/ml); IC (Enterococcus from fish; Enterococcus Seriolicida MS89068): ≤100 (MIC-equivalent values obtained at the succesive 2-fold dilution of the sample are 100-10 µg/ml); IC (Enterococcus from fish; Enterococcus Seriolicida SE94-001): ≤100 (MIC-equivalent values obtained at the succesive 2-fold dilution of the sample are 100-10 µg/ml); MIC (Enterococcus from fish; Enterococcus Seriolicida SE94-002): 10 to 100 µg/mL (≈ 18.5 to 185 µM); IC (Enterococcus from fish; Enterococcus Seriolicida SE94-003): ≤100 (MIC-equivalent values obtained at the succesive 2-fold dilution of the sample are 100-10 µg/ml); IC (Enterococcus from fish; Enterococcus Seriolicida SE94-004): ≤100 (MIC-equivalent values obtained at the succesive 2-fold dilution of the sample are 100-10 µg/ml); IC (Enterococcus from fish; Enterococcus Seriolicida SE94-005): ≤100 (MIC-equivalent values obtained at the succesive 2-fold dilution of the sample are 100-10 µg/ml); MIC (Pasteurella from fish): 10 to 100 µg/mL (≈ 18.5 to 185 µM)
CC(Oc1cc(Oc2ccc(C(F)(F)F)cc2Cl)ccc1[N+](=O)[O-])C(=O)C(C#N)C(=O)N1CCOCC1 (stereo not shown) [compound 137]	–	–	10 to 100 µg/mL (≈ 18.5 to 185 µM)	MIC [5]: 10 to 100 µg/mL (≈ 18.5 to 185 µM); MIC [3]: 10 to 100 µg/mL (≈ 18.5 to 185 µM)
CC(Oc1cc(Oc2ccc(C(F)(F)F)cc2Cl)ccc1Cl)C(=O)C(C#N)c1ccc(Cl)cc1Cl (stereo not shown) [compound 151]	–	–	≤ 1 µg/mL	MIC [5]: 10 to 100 µg/mL (≈ 17.8 to 178 µM); MIC [3]: ≤ 1 µg/mL
CC(Oc1cc(Oc2ccc(C(F)(F)F)cc2Cl)ccc1Cl)C(=O)C(C#N)c1ccc(Cl)c(Cl)c1 (stereo not shown) [compound 152]	–	–	≤ 1 µg/mL	MIC [5]: 1 to 10 µg/mL (≈ 1.78 to 17.8 µM); MIC [3]: ≤ 1 µg/mL
CC(Oc1cc(Oc2ccc(C(F)(F)F)cc2Cl)ccc1Cl)C(=O)C(C#N)c1ccccc1 (stereo not shown) [compound 156]	–	–	1 to 10 µg/mL (≈ 2.02 to 20.2 µM)	MIC [5]: 10 to 100 µg/mL (≈ 20.2 to 202 µM)
CC(Oc1cc(Oc2ccc(C(F)(F)F)cc2Cl)ccc1Cl)C(=O)C(C#N)C(=O)N1CCCC1 (stereo not shown) [compound 169]	–	–	10 to 100 µg/mL (≈ 19.4 to 194 µM)	MIC [3]: 10 to 100 µg/mL (≈ 19.4 to 194 µM)
CC(Oc1cc(Oc2ccc(C(F)(F)F)cc2Cl)ccc1Cl)C(=O)C(C#N)C(=O)N1CCOCC1 (stereo not shown) [compound 172]	–	–	10 to 100 µg/mL (≈ 18.8 to 188 µM)	–
CC(Oc1cc(Oc2ccc(C(F)(F)F)cc2Cl)ccc1Cl)C(=O)C(C#N)C(=O)N(C)c1ccccc1 (stereo not shown) [compound 175]	–	–	1 to 10 µg/mL (≈ 1.81 to 18.1 µM)	–
CC(Oc1cccc(Oc2ccc(C(F)(F)F)cc2Cl)c1)C(=O)C(C#N)c1cccc(Cl)c1 (stereo not shown) [compound 207]	–	–	≤ 1 µg/mL	MIC [3]: ≤ 1 µg/mL
CC(Oc1cccc(Oc2ccc(C(F)(F)F)cc2Cl)c1)C(=O)C(C#N)C(=O)N1CCCCC1 (stereo not shown) [compound 208]	–	–	1 to 10 µg/mL (≈ 2.02 to 20.2 µM)	MIC [3]: 1 to 10 µg/mL (≈ 2.02 to 20.2 µM)
